From patent publication US9303045B2, “5-HT3 receptor antagonists” (Takeda Pharmaceutical Company Limited, priority 2013, dated 2016)

Molecular target: 5HT3a receptor expressed in HEK-293T cells (Homo sapiens (Human), UniProt P46098)
Assay: Inhibition of Ca flux activity of 5HT3 in vitro assay
Format: cell-based
Conditions: calcium flux, 5HT 216 nM, approximate values
Experimental: Inhibition of Ca Flux Activity of 5HT3 In Vitro Assay
The 5HT3 antagonist activity of the compounds of the invention was determined by measuring the ability of the compounds to inhibit the calcium flux activity of […] receptor expressed in HEK-293T cells. HEK-293T cells were transfected with the 5HT3a expression construct using Xtreme Gene 9 (Roche) in 150 mm tissue culture treated plates and incubated for 24 hours at 37° C. Cells were then split and plated at a density of 60K cells/well in poly-lysine coated, black 96-well plates with clear bottoms (BD BioSciences) and incubated overnight at 37° C. Growth media was removed and cells loaded with 200 uL calcium indicator dye in HBSS containing 20 mM HEPES (Calcium 5 Assay kit, Molecular Devices) and incubated at 37° C. for 1 hour. While cells were incubating, the 10× antagonist and agonist/antagonist addition plates were made. For 10× antagonist plate: half log serial dilutions (final concentrations range from 10^−7 through 10^−10 with the bottom well a negative, no ligand control) were made from test compounds in DMSO at a 1000× concentration and then diluted to 10× in HBSS/20 mM HEPES. For addition plate: 5HT was diluted to 100× in HBSS/20 mM HEPES (final concentration in the assay—216 nM) and 15 uL was added to each well of the addition plate, 15 uL of 10× compound was also added to the addition plate, and finally 120 uL of HBSS/20 mM HEPES (for a total of 150 uL). Cells were then removed from the incubator and equilibrated to room temperature for 10 minutes, then 22.5 uL of 10× test compounds were added in triplicate to the plates and incubated at room temperature for 10 minutes (Tropisetron was used as a positive control in every assay). Test plate and addition plate were loaded into the FlexStation III (Molecular Devices), and using the fluidics, 22.5 uL compound additions were made (at t=˜17 seconds), and fluorescence was measured for 90 seconds, reading every 2.2 seconds. Data sets were analyzed as max minus min using Software Max Pro (Molecular Devices). IC50 curves were generated using non-linear regression in GraphPad Prism.

Chain of 5HT3a receptor expressed in HEK-293T cells (P46098 24-478): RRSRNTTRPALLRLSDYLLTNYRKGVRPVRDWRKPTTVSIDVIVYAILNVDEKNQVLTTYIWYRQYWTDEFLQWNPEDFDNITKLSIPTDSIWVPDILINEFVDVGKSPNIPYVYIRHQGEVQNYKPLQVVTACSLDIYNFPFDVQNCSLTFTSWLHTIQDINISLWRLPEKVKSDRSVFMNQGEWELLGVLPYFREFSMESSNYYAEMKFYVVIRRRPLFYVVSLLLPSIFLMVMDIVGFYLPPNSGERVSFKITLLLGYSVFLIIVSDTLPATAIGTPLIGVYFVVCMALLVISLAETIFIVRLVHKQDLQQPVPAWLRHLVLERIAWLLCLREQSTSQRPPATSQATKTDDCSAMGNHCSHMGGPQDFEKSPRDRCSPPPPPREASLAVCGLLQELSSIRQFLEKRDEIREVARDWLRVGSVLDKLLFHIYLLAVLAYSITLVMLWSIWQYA

Compound | IC50
CC(C)S(=O)(=O)n1cc(C(=O)NC2C[C@H]3COC[C@@H](C2)N3C)c2ccccc21 (some centres unmarked) | 0.57 nM
CN1[C@@H]2COC[C@H]1CC(NC(=O)c1cn(CC(F)(F)F)c3ccccc13)C2 (some centres unmarked) | 0.68 nM
CC(C)S(=O)(=O)n1cc(C(=O)O[C@H]2C[C@H]3COC[C@@H](C2)N3)c2ccccc21 | 1.8 nM
5-fluoro-N-((1R,5S,7S)-9-methyl-d3-3-oxa-9-azabicyclo[3.3.1]nonan-7-yl)-1-(2,2,2-trifluoroethyl)-1H-pyrrolo[2,3-b]pyridine-3-carboxamide 2,2,2-trifluoroacetate [Example 18] | 4.06 nM
O=C(OC1C[C@H]2COC[C@@H](C1)N2)c1cn(CC(F)F)c2ccc(F)cc12 (stereo partly drawn) [Example 31, (1R,5S,7S)-3-oxa-9-azabicyclo[3.3.1]nonan-7-yl 1-(2,2-difluoroethyl)-5-fluoro-1H-indole-3-carboxylate, 2,2,2-trifluoroacetate] | 1.29 nM
CN1C2COCC1CC(NC(=O)c1cn(CC(F)(F)F)c3ccc(F)cc13)C2 [Example 35, 5-fluoro-N-((1R,5S,7S)-9-methyl-3-oxa-9-azabicyclo[3.3.1]nonan-7-yl)-1-(2,2,2-trifluoroethyl)-1H-indole-3-carboxylate, 2,2,2-trifluoroacetate] | 0.54 nM
CN1[C@@H]2COC[C@H]1CC(NC(=O)c1cn(S(C)(=O)=O)c3ccc(F)cc13)C2 (stereo partly drawn) [Example 36, 5-fluoro-N-((1R,5S,7S)-9-methyl-3-oxa-9-azabicyclo[3.3.1]nonan-7-yl)-1-(methylsulfonyl)-1H-indole-3-carboxylate, 2,2,2-trifluoroacetate] | 0.5 nM
CS(=O)(=O)n1cc(C(=O)OC23CCN(CC2)CC3)c2cc(F)ccc21 [Example 37, quinuclidin-4-yl 5-fluoro-1-(methylsulfonyl)-1H-indole-3-carboxylate, 2,2,2-trifluoroacetate] | > 1000 nM
O=C(NC1C[C@H]2COC[C@@H](C1)N2)c1cn(CC(F)(F)F)c2ncccc12 (stereo partly drawn) [Example 38, N-((1R,5S,7S)-3-oxa-9-azabicyclo[3.3.1]nonan-7-yl)-1-(2,2,2-trifluoroethyl)-1H-pyrrolo[2,3-b]pyridine-3-carboxamide, 2,2,2-trifluoroacetate] | 1.82 nM
O=C(NC1C[C@H]2COC[C@@H](C1)N2)c1cn(CC(F)F)c2ncc(F)cc12 (stereo partly drawn) [Example 39, N-((1R,5S,7S)-3-oxa-9-azabicyclo[3.3.1]nonan-7-yl)-1-(2,2-difluoroethyl)-5-fluoro-1H-pyrrolo[2,3-b]pyridine-3-carboxamide, 2,2,2-trifluoroacetate] | 24.1 nM
CN1C2CCC1CC(OC(=O)c1cn(CC(F)F)c3ccccc13)C2 [Example 40, (1R,3R,5S)-8-methyl-8-azabicyclo[3.2.1]octan-3-yl 1-(2,2-difluoroethyl)-1H-indole-3-carboxylate, 2,2,2-trifluoroacetate] | 0.78 nM
CN1[C@@H]2CC[C@H]1CC(OC(=O)c1cn(CC(F)(F)F)c3ncccc13)C2 (stereo partly drawn) [Example 41, (1R,3R,5S)-8-methyl-8-azabicyclo[3.2.1]octan-3-yl 1-(2,2,2-trifluoroethyl)-1H-pyrrolo[2,3-b]pyridine-3-carboxylate, 2,2,2-trifluoroacetate] | 5.56 nM
CN1[C@@H]2CC[C@H]1CC(OC(=O)c1cn(C3CCOC3)c3ccccc13)C2 (stereo partly drawn) [Example 42, (1R,3R,5S)-8-methyl-8-azabicyclo[3.2.1]octan-3-yl 1-(tetrahydrofuran-3-yl)-1H-indole-3-carboxylate, 2,2,2-trifluoroacetate] | 0.94 nM
CN1[C@@H]2CC[C@H]1CC(OC(=O)c1c(Cl)n(CC(F)F)c3ccccc13)C2 (stereo partly drawn) [Example 43, (1R,3R,5S)-8-methyl-8-azabicyclo[3.2.1]octan-3-yl 2-chloro-1-(2,2-difluoroethyl)-1H-indole-3-carboxylate, 2,2,2-trifluoroacetate] | 1.02 nM
